Values of other authors as cited in patent US20120264961A1, “FE3O4-M(AU-LIKE)-NANOPARTICLES FOR ANTIBODY-CONSERVING TARGET-SPECIFIC PLATIN DELIVERY” (Brown University, priority 2009, published 2012).

Settings: water solubility

N.N.O=C([O-])C1(C(=O)[O-])CCC1.[Pt+2] [carboplatin]
solubility: 22 mg/mL
